Laboratory results as given in patent publication US7678918B2, “Intermediates for imidazonaphthyridines” (3M Innovative Properties Company, priority 1997, dated 2010).

Columns and labels:
[1] = test system: TNF; assay: Cytokine Induction in Human Cells: tumor necrosis factor (TNF) secreted by PBMCs, ELISA; type: cell-based; conditions: 18 to 24 hours
Description: (§1) An in vitro human blood cell system was used to assess cytokine induction by compounds of the invention. Activity is based on the measurement of interferon and tumor necrosis factor (ℑ) (IFN and TNF, respectively) secreted into culture media as described by Testerman et. al. In “Cytokine Induction by the Immunomodulators Imiquimod and S-27609”, Journal of Leukocyte Biology, 58, 365-372 (September, 1995). Blood Cell Preparation for Culture
(§2) Whole blood is collected by venipuncture into EDTA vacutainer tubes from healthy human donors. Peripheral blood mononuclear cells (PBMCs) are separated from whole blood by Histopaque®-1077 (Sigma Chemicals, St. Louis, Mo.) density gradient centrifugation. The PBMCs are suspended at 1.5-2×10^6 cells/mL in RPMI 1640 medium containing 10% fetal bovine serum, 2 mM L-glutamine and 1% penicillin/streptomycin solution (RPMI complete). 1 mL portions of PBMC suspension are added to 24 well flat bottom sterile tissue culture plates.
(§3) The compounds are solubilized in dimethyl sulfoxide (DMSO). The DMSO concentration should not exceed a final concentration of 1% for addition to the culture wells. The compounds are generally tested in a concentration range of from 0.1 to 100 μM.
(§4) The solution of test compound is added to the wells containing 1 mL of PBMCs in media. The plates are covered with plastic lids, mixed gently and then incubated for 18 to 24 hours at 37° C. with a 5% carbon dioxide atmosphere.
(§5) Following incubation the plates are centrifuged for 5-10 minutes at 1000 rpm (˜200×g) at 4° C. The cell culture supernatant is removed with a sterile polypropylene pipet and transferred to a 2 mL sterile cryotube. Samples are maintained at −70° C. until analysis.
Tumor necrosis factor (ℑ) (TNF) concentration is determined using an ELISA kit available from Genzyme, Cambridge, Mass. The results are expressed as pg/mL.

[2] = test system: IFN; assay: Cytokine Induction in Human Cells: interferon (IFN) secreted by PBMCs, A549/encephalomyocarditis bioassay; type: cell-based; conditions: 18 to 24 hours
Description: as §1, §2, §3, §4, §5
Interferon is determined by bioassay using A549 human lung carcinoma cells challenged with encephalomyocarditis. The details of the bioassay method have been described by G. L. Brennan and L. H. Kronenberg in “Automated Bioassay of Interferons in Micro-test Plates”, Biotechniques, June/July 78, 1983, incorporated herein by reference. Briefly stated the method is as follows: A549 cells are incubated with samples and standard interferon dilutions at 37° C. for 24 hours. The incubated cells are then infected with an inoculum of encephalomyocarditis virus. The infected cells are incubated for an additional 24 hours at 37° C. before quantifying for viral cytopathic effect. The viral cytopathic effect is quantified by staining followed by visual scoring of the plates. Results are expressed as alpha reference units/mL based on the value obtained for NIH Human Leukocyte IFN standard.
Note: call rule not given here.

CCCCc1nc2c(N)nc3cccnc3c2n1CCNC(=O)CCCCCCCCC(=O)OC [Example 122]
−: TNF induction ([1]; Dose Concentration 1.0 μM) | IFN induction ([2]; Dose Concentration 1.0 μM)
+: TNF induction ([1]; Dose Concentration 10.0 μM) | TNF induction ([1]; Dose Concentration 100.0 μM) | IFN induction ([2]; Dose Concentration 10.0 μM) | IFN induction ([2]; Dose Concentration 100.0 μM)

CCCCc1nc2c(N)nc3cccnc3c2n1CCCCNC(=O)Nc1ccccc1 [Example 47, N-[4-(4-Amino-2-butyl-1H-imidazo[4,5-c][1,5]naphthyridin-1-yl)butyl]-N′-phenylurea]
+: TNF induction ([1]; Dose Concentration 1.0 μM) | TNF induction ([1]; Dose Concentration 10.0 μM) | TNF induction ([1]; Dose Concentration 100.0 μM) | IFN induction ([2]; Dose Concentration 1.0 μM) | IFN induction ([2]; Dose Concentration 10.0 μM)
−: TNF induction ([1]; Dose Concentration 0.1 μM) | IFN induction ([2]; Dose Concentration 0.1 μM)
±: IFN induction ([2]; Dose Concentration 100.0 μM)

CCCCc1nc2c(N)nc3cccnc3c2n1CCCCNC(=O)c1ccc2ncccc2c1 [Example 107, N^1-[4-(4-Amino-2-butyl-1H-imidazo[4,5-c][1,5]naphthyridin-1-yl)butyl]-6-quinolinecarboxamide]
−: TNF induction ([1]; Dose Concentration 0.1 μM) | TNF induction ([1]; Dose Concentration 100.0 μM) | IFN induction ([2]; Dose Concentration 100.0 μM)
+: TNF induction ([1]; Dose Concentration 1.0 μM) | TNF induction ([1]; Dose Concentration 10.0 μM) | IFN induction ([2]; Dose Concentration 0.1 μM) | IFN induction ([2]; Dose Concentration 1.0 μM) | IFN induction ([2]; Dose Concentration 10.0 μM)

CCCCNC(=O)NCCCCn1c(CCCC)nc2c(N)nc3cccnc3c21 [Example 49, N-[4-(4-Amino-2-butyl-1H-imidazo[4,5-c][1,5]naphthyridin-1-yl)butyl]-N′-butylurea]
−: TNF induction ([1]; Dose Concentration 0.1 μM)
+: TNF induction ([1]; Dose Concentration 1.0 μM) | TNF induction ([1]; Dose Concentration 10.0 μM) | TNF induction ([1]; Dose Concentration 100.0 μM) | IFN induction ([2]; Dose Concentration 0.1 μM) | IFN induction ([2]; Dose Concentration 1.0 μM) | IFN induction ([2]; Dose Concentration 10.0 μM) | IFN induction ([2]; Dose Concentration 100.0 μM)

CCCCc1nc2c(N)nc3cccnc3c2n1CCCCNC(=O)c1cc(OC)c(OC)c(OC)c1 [Example 162]
−: TNF induction ([1]; Dose Concentration 0.1 μM)
+: TNF induction ([1]; Dose Concentration 1.0 μM) | TNF induction ([1]; Dose Concentration 10.0 μM) | TNF induction ([1]; Dose Concentration 100.0 μM) | IFN induction ([2]; Dose Concentration 0.1 μM) | IFN induction ([2]; Dose Concentration 1.0 μM) | IFN induction ([2]; Dose Concentration 10.0 μM) | IFN induction ([2]; Dose Concentration 100.0 μM)

CCCCc1nc2c(N)nc3cccnc3c2n1CCNC(=O)Cc1ccsc1 [Example 191]
+: TNF induction ([1]; Dose Concentration 10.0 μM) | TNF induction ([1]; Dose Concentration 100.0 μM) | IFN induction ([2]; Dose Concentration 1.0 μM) | IFN induction ([2]; Dose Concentration 10.0 μM) | IFN induction ([2]; Dose Concentration 100.0 μM)
−: TNF induction ([1]; Dose Concentration 1.0 μM)

CCCCc1nc2c(N)nc3cccnc3c2n1CCNC(=O)c1ccccc1OC [Example 144]
−: TNF induction ([1]; Dose Concentration 0.1 μM)
+: TNF induction ([1]; Dose Concentration 1.0 μM) | TNF induction ([1]; Dose Concentration 10.0 μM) | TNF induction ([1]; Dose Concentration 100.0 μM) | IFN induction ([2]; Dose Concentration 0.1 μM) | IFN induction ([2]; Dose Concentration 1.0 μM) | IFN induction ([2]; Dose Concentration 10.0 μM) | IFN induction ([2]; Dose Concentration 100.0 μM)

CCCCc1nc2c(N)nc3cccnc3c2n1CCNC(=O)c1cc(C(F)(F)F)cc(C(F)(F)F)c1 [Example 125]
+: TNF induction ([1]; Dose Concentration 10.0 μM) | TNF induction ([1]; Dose Concentration 100.0 μM) | IFN induction ([2]; Dose Concentration 1.0 μM) | IFN induction ([2]; Dose Concentration 10.0 μM) | IFN induction ([2]; Dose Concentration 100.0 μM)
−: TNF induction ([1]; Dose Concentration 1.0 μM)

CCCCc1nc2c(N)nc3cccnc3c2n1CCCCNC(=O)C1CCCC1 [Example 174]
+: TNF induction ([1]; Dose Concentration 0.1 μM) | TNF induction ([1]; Dose Concentration 1.0 μM) | TNF induction ([1]; Dose Concentration 10.0 μM) | IFN induction ([2]; Dose Concentration 0.1 μM) | IFN induction ([2]; Dose Concentration 1.0 μM) | IFN induction ([2]; Dose Concentration 10.0 μM) | IFN induction ([2]; Dose Concentration 100.0 μM)
−: TNF induction ([1]; Dose Concentration 100.0 μM)

CCCCc1nc2c(N)nc3cccnc3c2n1CCNC(=O)CCc1cccnc1 [Example 208]
− and +: TNF induction ([1]; Dose Concentration 10.0 μM) | TNF induction ([1]; Dose Concentration 100.0 μM)
+: IFN induction ([2]; Dose Concentration 10.0 μM) | IFN induction ([2]; Dose Concentration 100.0 μM)
−: TNF induction ([1]; Dose Concentration 0.1 μM) | IFN induction ([2]; Dose Concentration 0.1 μM) | IFN induction ([2]; Dose Concentration 1.0 μM)
− and ±: TNF induction ([1]; Dose Concentration 1.0 μM)

CCCCCCCOc1ccc(C(=O)NCCCCn2c(CCCC)nc3c(N)nc4cccnc4c32)cc1 [Example 190]
+: TNF induction ([1]; Dose Concentration 1.0 μM) | TNF induction ([1]; Dose Concentration 10.0 μM) | IFN induction ([2]; Dose Concentration 0.1 μM) | IFN induction ([2]; Dose Concentration 1.0 μM) | IFN induction ([2]; Dose Concentration 10.0 μM)
−: TNF induction ([1]; Dose Concentration 0.1 μM) | TNF induction ([1]; Dose Concentration 100.0 μM) | IFN induction ([2]; Dose Concentration 100.0 μM)

CCCCc1nc2c(N)nc3cccnc3c2n1CCNC(=O)Cc1cccnc1 [Example 207]
−: TNF induction ([1]; Dose Concentration 0.1 μM) | TNF induction ([1]; Dose Concentration 1.0 μM) | IFN induction ([2]; Dose Concentration 0.1 μM) | IFN induction ([2]; Dose Concentration 1.0 μM)
+: TNF induction ([1]; Dose Concentration 10.0 μM) | TNF induction ([1]; Dose Concentration 100.0 μM) | IFN induction ([2]; Dose Concentration 10.0 μM) | IFN induction ([2]; Dose Concentration 100.0 μM)

CCCCc1nc2c(N)nc3cccnc3c2n1CCCCNC(=O)c1c(F)c(F)c(F)c(F)c1F [Example 163]
+: TNF induction ([1]; Dose Concentration 1.0 μM) | TNF induction ([1]; Dose Concentration 10.0 μM) | IFN induction ([2]; Dose Concentration 0.1 μM) | IFN induction ([2]; Dose Concentration 1.0 μM) | IFN induction ([2]; Dose Concentration 10.0 μM) | IFN induction ([2]; Dose Concentration 100.0 μM)
−: TNF induction ([1]; Dose Concentration 0.1 μM) | TNF induction ([1]; Dose Concentration 100.0 μM)
